Assay results reported in patent publication EP1164141A2, “Opioid peptides and their use for treatment of pain” (AstraZeneca AB, priority 1994, dated 2001).
Square brackets hold non-standard residues; d marks the D form. Peptide text beside a SMILES is read from it. dNva = CCC[C@@H](N)C(=O)O

Columns and labels:
mice [1] = assay: lethality / safety after i.v. or s.c. administration; assay type: in vivo
Procedure: Therefore, the desired route of administration for these compounds is subcutaneous. Thus, the structural paradigm exemplified by BCH1774 can be modified while maintaining exclusion from the central nervous system even at doses as high as 100 mg kg^-1 s.c. and the deleterious i.v. toxicity can be minimized. Thus BCH2463 is not lethal to mice at doses at least as high as 20 mg kg^-1 (i.v.).

mice [2] = assay: PBQ (phenylquinone) induced writhing assay; assay type: in vivo; parameters: ED50 value: unit not given beside the values; conditions: for ED50 value: as shown in Table 1, PBQ writhing, unit not given; for peripheral analgesia: statement in words, writhing compared with hot plate
Excerpt: (§1) The term "ED50" as shown in table 1 for the PBQ writhing assays is defined as the dose of drug which induces a 50% reduction in the number of writhes observed compared to the control. The term "ED50" used in the hot-plate assays is defined as the dose of drug required to increase the latency of response 2-fold compared to controls and was determind by parallel-line probit analysis.
(§2) PBQ (phenyl-ρ-benzoquinone) induced writhing in mice is an assessment of both central and peripheral analgesia. For experimental protocol see Sigmund et al., Proc. Soc. Exp. Biol. Med., 95, p. 729 (1957) which is incorporated herein by reference. Central analgesia was determined by the inhibition of a hot plate response in mice. For experimental protocol see G. Woolfe and A. Macdonald, J. Pharmacol. Exp. Ther., 80, p.300 (1944) which is incorporated herein by reference. Assays measuring opioid receptor binding affinities for µ and δ receptors as well as GPI and MVD assays were determined through experimental protocol set out in Schiller et al., Biophys. Res. Commun., 85, p.1322 (1975) incorporated herein by reference.
The test was performed on CD #1 male mice weighing between 18 and 22g. The mice were weighed and marked. They were injected, by intra-peritoneal route, with 0.3ml/20g by weight with a solution of phenylquinone at 0.02%. The contortions which appeared during a 15 minute time period following the injection were counted. The phenylquinone was injected at time intervals of 5, 20 or 60 minutes after administration of the compound (or medium, or standard) by subcutaneous route. It was injected at time intervals of 60 minutes after the administration of the compound (or medium, or standard) by oral route;
The 0.02% phenylquinone^3 solution was prepared in the following fashion. 20mg of phenylquinone was dissolved in 5ml ethanol 90% (sigma, reagent, alcohol). The dissolved phenylquinone was slowly added to 95 ml of distilled water continuously shaken and preheated (not boiled). The phenylquinone solution was, at all times protected from light and a new solution was prepared every day for the test. It is recommended to wait 2 hours before using the phenylquinone solution. ** 2-phenyl-1,4-benzoquinone (Sigma)
The test may be carried out on 5 mice at the same time. Each group usually contained 10 mice. If an antagonist, such as naloxone, was used, it was administered 20 minutes before the compound (or the medium, or the standard) by intra-peritoneal route.

mice [3] = assay: hot plate test (central analgesia); assay type: in vivo; conditions: for central analgesic effect: mouse hot plate test, even at doses of 100 mg/kg
Excerpt: as §1, §2
For this test, CD #1 male mice weighing between 20 and 25g were used. The mice were weighed, marked, and divided into groups of 10.
The mice were usually treated by subcutaneous injection of the compound (or the standard or the medium) in an injection volume equivalent to 0.1 ml/10g p.c. (10ml/kg). If an antagonist such as Nalaxone or N-methyl-Levallorphan was used, it was administered intra-peritoneally 20 minutes before the compound (or the standard, or the medium) was administered. The injection volume was also 0.1 ml/10g p.c. The dose of the antagonist was 10 mg/kg.
The mice were individually evaluated for reaction time on the hot plate. The temperature of the hot plate (Sorel, model DS37) was set at 55°C. […] The mice may be observed at different time intervals after administration of the compound (or medium, or standard). The time intervals may be 30, 60 or 120 minutes (or other).
For each time reading, the average reaction time of the control group was multiplied by 1.5. The reaction time of each treated mouse was compared to the "control average X 1.5.". […] The number of analgesic mice in a group determined the analgesic percentage of the compound for this reading.

[4] = degradation on exposure to brush border kidney membranes; assay type: in vitro ADME; conditions: exposed to brushborder kidney membranes
Excerpt: Many of the compounds listed in Table 1 show good µ-receptor binding but show weak analgesic effect in the mouse writhing assay. This anomaly may be due to rapid proteolysis, rapid clearence, or both. […] These three compounds are H-Tyr-D-Nva-Phe-Phe-NH2 (BCH2462), H-Tyr-D-Ser-Phe-Phe-NH2 (BCH2463), and H-Tyr-D-Arg-Phe-Phe-NH2 (BCH2687).
The effects of inhibition of proteolytic metabolism of BCH2463 by the inhibitor DL-Thiorphan has been studied and also the metabolic breakdown of BCH2463 mediated by brush border kidney membranes. The data obtained indicate that the kidney may be the principal site of clearance and metabolism for the compound BCH2463. From Figure 2, it appears that the endopeptidase enzyme EC24-11, which is inhibited by DL-thiorphan, is the preliminary mediator of BCH2463 proteolysis by brush border kidney extract.

Compound | lethal effects upon mice (mice [1]; 1-5 mg kg^-1 i.v. bolus dose) | duration in vivo of analgesic effects (mice [2]; 20 mg/kg s.c. of BCH1774 compared with 30 mg/kg s.c. of BCH2463 (Figure 3)) | ED50 value (mice [2]) | central analgesic effect (mice [3]) | time within which rapidly degraded [4] | peripheral analgesia (mice [2]) | reaction time (mice [3]; Figs. 1C, 1D, dose not given) | lethal effects upon mice (mice [1]; doses up to 20 mg kg^-1 i.v.) | ED50 (mice [2]; mouse s.c., at 20 minutes post administration (Figure 2)) | reaction time (mice [3]; mice treated with 100 mg/kg (Fig 1B), control approximately 7 seconds)
C[C@@H](NC(=O)[C@@H](N)Cc1ccc(O)cc1)C(=O)N[C@@H](Cc1ccccc1)C(=O)N[C@@H](Cc1ccccc1)C(N)=O [BCH1774, H-Tyr-D-Ala-Phe-Phe-NH2] (H-Y[dA]FF-NH2) | exhibited lethal effects | lasted longer than for BCH2463 | 1.4 | lack of analgesic effect | 15 to 30 min |  |  |  |  | 
CCC[C@@H](NC(=O)[C@@H](N)Cc1ccc(O)cc1)C(=O)N[C@@H](Cc1ccccc1)C(=O)N[C@@H](Cc1ccccc1)C(N)=O [BCH2462, H-Tyr-D-Nva-Phe-Phe-NH2] (H-Y[dNva]FF-NH2) | exhibited lethal effects |  | 2.7 | No central analgesic effect was observed |  | exhibit peripheral analgesia | approximately 8 seconds |  |  | 
NC(=O)[C@H](Cc1ccccc1)NC(=O)[C@H](Cc1ccccc1)NC(=O)[C@@H](CO)NC(=O)[C@@H](N)Cc1ccc(O)cc1 [BCH2463, H-Tyr-D-Ser-Phe-Phe-NH2] (H-Y[dS]FF-NH2) |  |  | 0.5 | No central analgesic effect was observed |  | exhibit peripheral analgesia |  | did not exhibit any lethal effects | 0.5 mg/kg | about 9 seconds
N=C(N)NCCC[C@@H](NC(=O)[C@@H](N)Cc1ccc(O)cc1)C(=O)N[C@@H](Cc1ccccc1)C(=O)N[C@@H](Cc1ccccc1)C(N)=O [BCH2687, H-Tyr-D-Arg-Phe-Phe-NH2] (H-Y[dR]FF-NH2) |  |  | 0.5 | No central analgesic effect was observed |  | exhibit peripheral analgesia | approximately 8 seconds |  |  | 
